In publication PMC8625693, “Synthesis and Structure-Activity Relationships of New 2-Phenoxybenzamides with Antiplasmodial Activity” (Pharmaceuticals, 2021):
Read-outs that look alike come from different tables or passages of the source.

What was measured:
P. falciparum NF54 = assay: In vitro microplate assay against P. falciparum NF54 (3H-hypoxanthine incorporation, erythrocytic stages); assay type: cell-based, Plasmodium falciparum
Protocol: (§1) All newly synthesized compounds were tested for their antiplasmodial activity against the chloroquine-sensitive strain Plasmodium falciparum NF54. Cytotoxicity was determined using rat skeletal myofibroblasts (L-6 cells). As standards chloroquine and podophyllotoxin were used.
In vitro activity against erythrocytic stages of P. falciparum was determined with a ^3H-hypoxanthine incorporation assay, using the chloroquine sensitive NF54 strain [44]. Chloroquine (Sigma C6628) was used as standard. Test compounds were dissolved in DMSO at 10 mg/mL and added to parasite cultures incubated in RPMI 1640 medium without hypoxanthine, supplemented with HEPES (5.94 g/L, NaHCO3 (2.1 g/L), neomycin (100 U/mL), Albumax (5 g/L) and washed human red blood cells A^+ at 2.5% hematocrit (0.3% parasitemia). Serial drug dilutions of 11 3-fold dilution steps (covering a range from 100–0.002 µg/mL) were prepared. The 96-well plates were incubated at a humidified atmosphere at 37 °C; 4% CO2, 3% O2, 93% N2. After 48 h, 0.05 mL of ^3H-hypoxanthine (=0.5 µCi) was added to each well. The plates were incubated for another 24 h under the same conditions. Then, the plates were harvested with a Betaplate cell harvester (Wallac, Zurich, Switzerland). The red blood cells were transferred onto glass fiber filter and washed with distilled water. The dried filters were inserted into a plastic foil with 10 mL of scintillation fluid and counted in a Betaplate liquid scintillation counter. IC50 values were determined from sigmoidal inhibition curves by linear regression using Microsoft Excel. Chloroquine was used as control.

[1] = In vitro cytotoxicity with L-6 cells (Alamar Blue); assay type: cell-based, rat
Protocol: as §1
(§2) In vitro cytotoxicity was determined using a primary cell line of rat skeletal myofibroblasts. The assay was performed in 96-well microtiter plates, each well containing 0.1 mL of RPMI 1640 medium, supplemented with 0.1% L-glutamine (200 mM) and 10% fetal bovine serum, as well as 4000 L-6 cells. Serial drug dilutions of 11 3-fold dilution steps (covering a range from 100–0.002 µg/mL) were prepared. After 70 h of incubation time, the plates were inspected under an inverted microscope to ensure sterile conditions and growth of the controls. […] Podophyllotoxin (Sigma P4405) was used as control.

[2] = Parallel artificial membrane permeability assay (PAMPA); conditions: pH 7.4
Protocol: The PAMPA was performed using a Corning Gentest Pre-coated PAMPA Plate System at a pH of 7.4. It consists of 96-well polystyrene plates, whereas the donor-plate (bottom plate) is a conventional 96-well microtiter plate. The base of the acceptor-plate (top plate) consists of a porous membrane. The pores are lined with a lipid-oil-lipid trilayer. Stock solutions (10 mM) of each test compound were prepared in DMSO or MeOH and then further diluted to a final concentration of 200 µM with phosphate-buffered saline (PBS) at a pH of 7.4. Compound solutions were then added to the wells of the donor plate and pure PBS was added to each well of the acceptor plate. Compounds and negative control (pure PBS) were tested in quadruplicates. Donor and acceptor plate were coupled and incubated at ambient temperature for 5 h. After that, the plates were separated and solutions from each well of both plates were transferred onto 96-well UV-Star Microplates (Greiner Bio-One). The UV-absorption was measured at different wavelengths (between 200 and 300 nm) by a SpectraMax M3 UV plate reader (Molecular Devices). The concentrations were received from a calibration curve for each substance. The plates were analyzed at a wavelength were the R^2 value of the calibration curve was higher than 0.99 [48]. […] (2) cequ=cDt* VD+cAt* VA/VD+VA where: • cD(t)—compound concentration in donor well at time t.
Recovery of compounds from donor and acceptor wells (mass retention) was calculated as shown in the equation below. Data were only accepted when recovery exceeded 70%. (3) R=1−cDt∗ VD+cAt∗ VA/c0∗ VD where: • R—mass retention (%); • cA(t)—compound concentration in acceptor well at time t; • cD(t)—compound concentration in donor well at time t; • c0—initial compound concentration in donor well; • VD—donor well volume; • VA—acceptor well volume.

CYP3A4 = molecular target: T1, CYP3A4 (Homo sapiens, UniProt P08684); assay: Cytochrom P450 3A4 inhibition assay (P450-Glo, luciferin-IPA); assay type: in vitro ADME; conditions: recombinant human CYP3A4 Supersomes (+ oxidoreductase + b5), probe luciferin-IPA, stock solutions diluted to 20 µM, pH 7.4, triplicate
T1 construct: purchased Corning, Glendale, AZ, USA
T1 sequence (P08684 2-503 limits assumed): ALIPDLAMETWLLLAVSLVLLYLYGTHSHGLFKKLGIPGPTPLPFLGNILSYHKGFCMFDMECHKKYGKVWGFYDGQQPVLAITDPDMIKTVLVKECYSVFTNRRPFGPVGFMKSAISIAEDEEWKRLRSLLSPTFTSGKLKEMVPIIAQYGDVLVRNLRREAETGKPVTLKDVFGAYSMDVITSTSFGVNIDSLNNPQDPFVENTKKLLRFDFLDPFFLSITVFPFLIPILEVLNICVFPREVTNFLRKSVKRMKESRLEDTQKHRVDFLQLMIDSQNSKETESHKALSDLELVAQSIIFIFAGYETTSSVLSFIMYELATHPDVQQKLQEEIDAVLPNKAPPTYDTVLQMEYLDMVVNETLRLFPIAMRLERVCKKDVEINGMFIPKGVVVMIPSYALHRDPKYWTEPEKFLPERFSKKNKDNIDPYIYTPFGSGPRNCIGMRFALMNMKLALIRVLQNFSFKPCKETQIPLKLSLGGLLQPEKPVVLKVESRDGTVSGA
Protocol: The CYP3A4 inhibition assay was performed using 96-well White Plates (Greiner Bio-One) at a pH of 7.4. […] Stock solutions were further diluted to a final concentration of 20 µM using water (HPLC grade). The luciferin IPA stock solution (3 mM) was diluted to a final concentration of 0.3 mM using water (HPLC grade). The CYP3A4 reaction mixture was prepared by mixing water (HPLC grade) with potassium phosphate buffer (1 M), luciferin IPA (0.3 mM) and CYP3A4 membrane (1 pmol/µL). The control reaction mixture was prepared using water (HPLC grade), potassium phosphate buffer (1 M), luciferin IPA (0.3 mM) and membrane without CYP activity (1 pmol/µL). Solutions A and B of the NADPH regeneration system were mixed and HPLC grade water was added. The reconstituted luciferin detection reagent was prepared by mixing the reconstituted buffer with esterase with the luciferin detection reagent. Then, solutions of test compounds and standard were added to the wells of the 96-well White Plate, each was tested in triplicate. The CYP3A4 reaction mixture was added to each well and the plate was incubated for 10 min at room temperature. After that, the NADPH regeneration system was added, inducing the reaction followed by an incubation time of 10 min at ambient temperature. By adding the reconstituted luciferin detection reagent, the reaction was terminated, and a luminescent signal was formed. Luminescence was measured by a SpectraMax M3 UV plate reader (Molecular Devices). The relative light units (RLU) were received from a calibration curve with beetle luciferin. […] The CYP3A4 inhibition (%) was calculated from the RLU.

L-6 cells = assay: In vitro cytotoxicity with L-6 cells (Alamar Blue); assay type: cell-based, rat
Protocol: as §1, §2

[3] = rat skeletal myofibroblasts, average of four determinations, read-out: Cytotoxicity L-6 Cells IC50
[4] = Plasmodium falciparum, NF54, chloroquine-sensitive strain NF54, blood stages, average of four determinations, read-out: P.f. NF54 IC50
[5] = chloroquine-sensitive strain NF54, blood stages, average of four determinations, read-out: P.f. NF54 IC50
[6] = rat, Cytotoxicity L-6 Cells IC50

IC50 (P. falciparum NF54; [4]) | Papp at 5 h, 200 µM [2] | inhibition at 10 min, 20 µM (CYP3A4) | Structure (SMILES) | IC50 at 72 h [1, 6] | further results
 |  |  | CCN(CC)CCCC(C)Nc1ccnc2cc(Cl)ccc12 (stereo not drawn) [CQ, chloroquine, reference compound] |  | IC50 (P. falciparum NF54; Plasmodium falciparum, NF54, read-out: P.f. NF54 IC50): 0.009 µM; IC50 at 72 h [1, 3]: 90.9 µM
3.74 µM | 0.08 ×10⁻⁶ cm/s |  | CC(C)(C)OC(=O)N1CCN(c2ccccc2NC(=O)c2cccc(C(F)(F)F)c2)CC1 [Compound 7, tert-Butyl-4-{2-[3-(trifluoromethyl)benzamido]phenyl}piperazine-1-carboxylate] | 113 µM | 
1.01 to 1.15 µM | 4.06 ×10⁻⁶ cm/s | 99% | CC(=O)Nc1ccc(Oc2c(C(=O)Nc3ccccc3N3CCN(C(=O)OC(C)(C)C)CC3)cccc2C(F)(F)F)cc1 [Compound 8, tert-Butyl-4-{2-[2-(4-acetamidophenoxy)-3-(trifluoromethyl)benzamido]phenyl}piperazine-1-carboxylate] | 73 µM | IC50 (P. falciparum NF54; [5]): 1.15 µM
9.33 to 21.3 µM | 10.1 ×10⁻⁶ cm/s |  | O=C(Nc1ccccc1)c1cccc(C(F)(F)F)c1Oc1ccc(F)cc1 [Compound 12, 2-(4-Fluorophenoxy)-N-phenyl-3-(trifluoromethyl)benzamide] | 129 to 202 µM | IC50 (P. falciparum NF54; [5]): 9.33 µM; IC50 (L-6 cells; rat, 72 h): 202 µM
 | 11.4 ×10⁻⁶ cm/s |  | Nc1ccccc1NC(=O)c1cccc(C(F)(F)F)c1Oc1ccc(F)cc1 [Compound 14, N-(2-Aminophenyl)-2-(4-fluorophenoxy)-3-(trifluoromethyl)benzamide] | 129 µM | 
2.53 µM | 10.1 ×10⁻⁶ cm/s |  | CC(=O)N1CCN(c2ccccc2NC(=O)c2cccc(C(F)(F)F)c2Oc2ccc(F)cc2)CC1 [Compound 17, N-[2-(4-Acetylpiperazin-1-yl)phenyl]-2-(4-fluorophenoxy)-3-(trifluoromethyl)benzamide] | 27.1 µM | 
 | 7.44 ×10⁻⁶ cm/s |  | NC(=O)N1CCN(c2ccccc2NC(=O)c2cccc(C(F)(F)F)c2Oc2ccc(F)cc2)CC1 [Compound 21, N-[2-(4-Carbamoylpiperazin-1-yl)phenyl]-2-(4-fluorophenoxy)-3-(trifluoromethyl)benzamide] | 31.8 to 35.4 µM | IC50 (L-6 cells; rat, 72 h): 35.4 µM
2.3 µM |  |  | CN(C)C(=O)N1CCN(c2ccccc2NC(=O)c2cccc(C(F)(F)F)c2Oc2ccc(F)cc2)CC1 [Compound 22, N-{2-[4-(N,N-Dimethylcarbamoyl)piperazin-1-yl]phenyl}-2-(4-fluorophenoxy)-3-(trifluoromethyl)benzamide] | 20.2 µM | 
3.3 µM | 6.17 ×10⁻⁶ cm/s | 96% | CC(C)(C)OC(=O)N1CCN(c2cccc(NC(=O)c3cccc(C(F)(F)F)c3Oc3ccc(F)cc3)c2)CC1 [Compound 36, tert-Butyl-4-{3-[2-(4-fluorophenoxy)-3-(trifluoromethyl)benzamido]phenyl}piperazine-1-carboxylate] | 124 µM | 
0.269 µM | 0.09 ×10⁻⁶ cm/s | 93% | CC(C)(C)OC(=O)N1CCN(c2ccc(NC(=O)c3cccc(C(F)(F)F)c3Oc3ccc(F)cc3)cc2)CC1 [Compound 37, tert-Butyl-4-{4-[2-(4-fluorophenoxy)-3-(trifluoromethyl)benzamido]phenyl}piperazine-1-carboxylate] | 124 µM | 
3.17 µM | 1.17 ×10⁻⁶ cm/s |  | CC(C)(C)C(=O)N1CCN(c2cccc(NC(=O)c3cccc(C(F)(F)F)c3Oc3ccc(F)cc3)c2)CC1 [Compound 38, N-{3-[4-(2,2-Dimethylpropanoyl)piperazin-1-yl]phenyl}-2-(4-fluorophenoxy)-3-(trifluoromethyl)benzamide] | 78 to 99.6 µM | IC50 (L-6 cells; rat, 72 h): 78 µM
51.5 to 51.9 µM | 18.4 ×10⁻⁶ cm/s |  | Nc1cccc(NC(=O)c2cccc(C(F)(F)F)c2Oc2ccc(F)cc2)c1 [Compound 50, N-(3-Aminophenyl)-2-(4-fluorophenoxy)-3-(trifluoromethyl)benzamide] | 104 µM | IC50 (P. falciparum NF54; [5]): 51.5 µM
51.5 to 51.9 µM | 12.9 ×10⁻⁶ cm/s | 88% | Nc1ccc(NC(=O)c2cccc(C(F)(F)F)c2Oc2ccc(F)cc2)cc1 [Compound 51, N-(4-Aminophenyl)-2-(4-fluorophenoxy)-3-(trifluoromethyl)benzamide] | 130 µM | IC50 (P. falciparum NF54; [5]): 55.9 µM
4.66 µM | 11.2 ×10⁻⁶ cm/s | 60% | CC(C)(C)C(=O)N1CCN(c2ccc(NC(=O)c3cccc(C(F)(F)F)c3Oc3ccccc3)cc2)CC1 [Compound 55, N-{4-[4-(2,2-Dimethylpropanoyl)piperazin-1-yl]phenyl}-2-phenoxy-3-(trifluoromethyl)benzamide] | 89.8 µM | 
 |  |  | COc1cc([C@@H]2c3cc4c(cc3[C@H](O)[C@H]3COC(=O)[C@H]23)OCO4)cc(OC)c1OC [POD, podophyllotoxin, reference compound] |  | IC50 (L-6 cells; [3]): 0.012 µM

Structure (SMILES) | IC50 (P. falciparum NF54; [4]) | Papp at 5 h, 200 µM [2] | inhibition at 10 min, 20 µM (CYP3A4) | IC50 at 72 h [1, 6] | further results
CC(C)(C)OC(=O)N1CCN(c2ccccc2NC(=O)c2cccc(C(F)(F)F)c2Oc2ccccc2)CC1 [Compound 6, tert-Butyl-4-{2-[2-phenoxy-3-(trifluoromethyl)benzamido]phenyl}piperazine-1-carboxylate] | 1.01 to 1.15 µM | 3 ×10⁻⁶ cm/s | 87% |  | IC50 (P. falciparum NF54; [5]): 1.01 µM; IC50 at 72 h ([1]; rat, rat skeletal myofibroblasts, average of four determinations, read-out: Cytotoxicity L-6 Cells IC50): 128 µM
CC(C)(C)OC(=O)Nc1ccccc1NC(=O)c1cccc(C(F)(F)F)c1Oc1ccc(F)cc1 [Compound 13, tert-Butyl-N-{2-[2-(4-fluorophenoxy)-3-(trifluoromethyl)benzamido]phenyl}carbamate] | 1.9 µM | 8.72 ×10⁻⁶ cm/s | 90% |  | 
Cn1c(=O)c2c(ncn2C)n(C)c1=O [caffeine, reference compound] |  | 8 ×10⁻⁶ cm/s |  |  | 
